# Data published in patent US20030203373A1 (priority 2002, published 2003).
# “And” between values parts separate entries of the source, which are not always exact repeats. Equal values may be shown once. “Also recorded” adds a separate entry of the source.
# Tested on: normotensive Wister rats
# Experiment: Bradykinin-potentiating effect on blood pressure in anaesthetized normotensive rats
# Format: in vivo, rat
# Experimental: In the in vivo experiments with normotensive rats the animals were previously anaesthetized and after blood pressure stabilization treated with a constant amount of bradykinin. Subsequently, either Captopril or human BPP were administered, again followed by a constant amount of bradykinin. Afterwards the maximum blood pressure drop was determined and, on the basis of bradykinin as a factor 1, the potentiating factor was determined. In the same way, the systolic and diastolic blood pressure, the percentage middle pressure decrease and the time required to come back to the baseline values were measured (see tables 4a to 4j). A detailed experimental description is given below.
# 2. Measurement of Blood Pressure in Normotensive and Hypertensive Rats
# The trials were conducted on female anaesthetized normotensive Wister rats with weight ranging from 210 to 240 g.
# The peptide pANP48-57 used for the in vivo assays was synthesized by Biosynthan (Berlin) with a HPLC-determined purity of 98%.
# Anaesthetizing was performed by i.p.-administration of 1 ml/kg Ketavit (100 mg/ml)+Rampun (2%).
# In order to conduct the blood pressure measurement, a polyethylene catheter was introduced into the Aorta femuralis and connected with a pressure transducer. A Statham-P23A pressure-transducer was linked to a Gould Polygraph and used to determine the arterial blood pressure. A Hg-manometer was used to calibrate the system.
# All substances were dissolved and diluted in a physiological sodium chloride solution and introduced into the Vena jugularis via a catheter.
# After stabilization of blood pressure (after about 10 minutes) […] body weight of a 2,5 μM bradykinin-solution (Sigma) was administered.
# The middle pressure was determined from the measured diastolic (pd) and systolic (ps) blood pressure by using the following formula: pm=(ps−Pd)×0,42+pd.
# [1] = S605 1 × 10^−3 M + Bradykinin 2.5 × 10^−6 M
# [2] = S605 1 × 10^−3 M + Bradykinin 2.5 × 10^−6 M, individual female rat
# [3] = S605 1.5 × 10^−3 M + Bradykinin 2.5 × 10^−6 M
# [4] = S605 1.5 × 10^−3 M + Bradykinin 2.5 × 10^−6 M, Rat (female) 216 g, Table 4j
# [5] = S605 1.5 × 10^−3 M + Bradykinin 2.5 × 10^−6 M, individual female rat
# [6] = S605 1.5 × 10^−4 M + Bradykinin 2.5 × 10^−6 M
# [7] = S605 1.5 × 10^−4 M + Bradykinin 2.5 × 10^−6 M, individual female rat
# [8] = S605 5 × 10^−3 M + Bradykinin 2.5 × 10^−6 M
# [9] = S605 5 × 10^−3 M + Bradykinin 2.5 × 10^−6 M, Rat (female) 211 g, Table 4i
# [10] = S605 5 × 10^−3 M + Bradykinin 2.5 × 10^−6 M, individual female rat
smiles,measurement,setting,value
CC(C)C[C@H](NC(=O)[C@H](C)N)C(=O)N[C@@H](CO)C(=O)N1CCC[C@H]1C(=O)N[C@@H](CC(C)C)C(=O)N1CCC[C@H]1C(=O)N[C@@H](CCC(=O)O)C(=O)N[C@H](C(=O)N1CCC[C@H]1C(=O)N1CCC[C@H]1C(=O)O)C(C)C [Peptide S545],maximal drop of blood pressure,[1],48.5%
same,potentiating factor (Bradykinin = 1),[1],1.49
same,"Blood pressure minimal, PM (middle pressure) = (Ps − Pd) × 0.42 + Pd",[2],39 mg Hg
same,"Blood pressure minimal, diastolic",[2],28 mg Hg
same,"Blood pressure minimal, systolic",[2],55 mg Hg
same,time to reach the baseline value,[2],time to reach the baseline value (t = 31 s)
same,ΔP (middle pressure drop),[2],37 mg Hg
same,"ΔP (middle pressure drop), percentage",[2],48.5%
same,maximal drop of blood pressure,[3],50.5% ± 5.2
same,potentiating factor (Bradykinin = 1),[3],1.61
same,"Blood pressure minimal, PM (middle pressure) = (Ps − Pd) × 0.42 + Pd",[4],39 mg Hg
same,"Blood pressure minimal, diastolic",[4],28 mg Hg
same,"Blood pressure minimal, systolic",[4],55 mg Hg
same,following short overreaction at maximum (systolic/diastolic),[4],following short overreaction at maximum of 106/80
same,time to reach the baseline value,[4],time to reach the baseline value (t = 20 s)
same,ΔP (middle pressure drop),[4],43 mg Hg
same,"ΔP (middle pressure drop), percentage",[4],52.4%
same,"Blood pressure minimal, PM (middle pressure) = (Ps − Pd) × 0.42 + Pd",[5],40 mg Hg and 34 mg Hg
same,"Blood pressure minimal, diastolic",[5],34 mg Hg and 26 mg Hg
same,"Blood pressure minimal, systolic",[5],49 mg Hg and 45 mg Hg
same,time to reach the baseline value,[5],time to reach the baseline value (t = 46 s); also recorded: time to reach the baseline value (t = 57 s)
same,ΔP (middle pressure drop),[5],32 mg Hg and 41 mg Hg
same,"ΔP (middle pressure drop), percentage",[5],44.6% and 54.4%
same,maximal drop of blood pressure,[6],38.9% ± 8.3
same,potentiating factor (Bradykinin = 1),[6],1.24
same,"Blood pressure minimal, PM (middle pressure) = (Ps − Pd) × 0.42 + Pd",[7],48 mg Hg and 34 mg Hg and 33 mg Hg
same,"Blood pressure minimal, diastolic",[7],40 mg Hg and 26 mg Hg and 28 mg Hg
same,"Blood pressure minimal, systolic",[7],60 mg Hg and 46 mg Hg and 40 mg Hg
same,time to reach the baseline value,[7],time to reach the baseline value (t = 26 s); also recorded: time to reach the baseline value (t = 36 s); also recorded: time to reach the baseline value (t = 23 s)
same,ΔP (middle pressure drop),[7],22 mg Hg and 32 mg Hg and 20 mg Hg
same,"ΔP (middle pressure drop), percentage",[7],31.4% and 47.9% and 37.4%
same,maximal drop of blood pressure,[8],63.8% ± 3.6
same,potentiating factor (Bradykinin = 1),[8],2.04
same,"Blood pressure minimal, PM (middle pressure) = (Ps − Pd) × 0.42 + Pd",[9],44 mg Hg
same,"Blood pressure minimal, diastolic",[9],35 mg Hg
same,"Blood pressure minimal, systolic",[9],56 mg Hg
same,following short overreaction at maximum (systolic/diastolic),[9],following short overreaction at maximum of 141/108
same,time to reach the baseline value,[9],time to reach the baseline value (t = 44 s)
same,ΔP (middle pressure drop),[9],70 mg Hg
same,"ΔP (middle pressure drop), percentage",[9],61.4%
same,following short overreaction at maximum of (systolic/diastolic blood pressure),"S605 5 × 10^−3 M + Bradykinin 2.5 × 10^−6 M, after return to baseline",following short overreaction at maximum of 112/84; also recorded: following short overreaction at maximum of 154/112
same,"Blood pressure minimal, PM (middle pressure) = (Ps − Pd) × 0.42 + Pd",[10],24 mg Hg and 40 mg Hg
same,"Blood pressure minimal, diastolic",[10],16 mg Hg and 32 mg Hg
same,"Blood pressure minimal, systolic",[10],36 mg Hg and 52 mg Hg
same,time to reach the baseline value,[10],time to reach the baseline value (t = 36 s); also recorded: time to reach the baseline value (t = 87 s)
same,ΔP (middle pressure drop),[10],52 mg Hg and 66 mg Hg
same,"ΔP (middle pressure drop), percentage",[10],68% and 62.1%
same,bradykinin-potentiating effect (short-time decrease of blood pressure induced by bradykinin),"normotensive rats, result in words",concentration dependent bradykinin-potentiating
same,fold higher molecular concentration in comparison to Captopril required for the bradykinin-potentiating effect in vivo,relative to Captopril,10 fold
